Experimental data: ChEMBL document CHEMBL3992566, “Development and Biological Evaluation of a Photoactivatable Small Molecule Microtubule-Targeting Agent” (ACS Med Chem Lett, 2017)
Values belong to the molecule of their own block, whether it stands above or below them. Activity calls are given as the source filed them. The calls are words filed in the database; no cut-off is given here.

Columns and labels:
Sus scrofa [1] = species: Sus scrofa; assay: Inhibition of porcine brain tubulin polymerization at 3 uM by fluorescence assay
Sus scrofa [2] = species: Sus scrofa; assay: Inhibition of colchicine binding to porcine brain tubulin up to 60 uM after 90 mins by fluorescence assay
Homo sapiens [3] = species: Homo sapiens; assay: Disruption of microtubule organization in human U251 cells at 5 uM after 24 hrs under UV irradiation of 1800 mW for 5 mins by DAPI staining based immunofluorescence assay; assay type: cell-based
[4] = Photoactivation of prodrug assessed as decay time constant for 4-(4-(2-fluoropyridin-3-yl)phenyl)-N-(4-hydroxyphenyl)butanamide release at 1 mM under UV irradiation of 5400 mW after 1 min by HPLC-MS analysis
[5] = Induction of apoptosis in patient-derived RN1 cells at 5 uM after 48 hrs under dark condition by Annexin V staining based assay (reference value: 8.1%); assay type: cell-based; details: human, rn1, 48 h
[6] = Dark toxicity against human U251 cells assessed as reduction in cell viability after 72 hrs by Cell-Titer Blue assay; assay type: cell-based, U-251
[7] = Photoactivation of prodrug assessed as 4-(4-(2-fluoropyridin-3-yl)phenyl)-N-(4-hydroxyphenyl)butanamide release at 1 mM under UV irradiation of 5400 mW after 1 min by HPLC-MS analysis
[8] = Phototoxicity against patient-derived RN1 cells assessed as reduction in cell viability under UV irradiation of 1800 mW for 30 secs measured after 72 hrs by Cell-Titer Blue assay; assay type: functional, cell-based; details: Homo sapiens, RN1, light or radiation study
[9] = Photoactivation of prodrug assessed as time required to release maximum concentration of 4-(4-(2-fluoropyridin-3-yl)phenyl)-N-(4-hydroxyphenyl)butanamide at 1 mM under UV irradiation of 5400 mW by HPLC-MS analysis
[10] = Induction of apoptosis in patient-derived RN1 cells assessed as necrotic cells at 5 uM after 48 hrs under UV irradiation of 1800 mW for 30 secs by Annexin V staining based assay relative to control; assay type: functional, Homo sapiens
[11] = Effect on kinetics of porcine brain tubulin polymerization at 50 uM under dark condition by fluorescence assay; assay type: ADME, Sus scrofa; details: pig
[12] = Disruption of microtubule organization in human U251 cells at 5 uM after 24 hrs under dark condition by DAPI staining based immunofluorescence assay; assay type: ADME, cell-based
[13] = Effect on colchicine binding to porcine brain tubulin up to 60 uM after 90 mins under dark condition by fluorescence assay; assay type: ADME, Sus scrofa; details: pig, 1.5 h
U-251 [14] = assay: Phototoxicity against human U251 cells assessed as reduction in cell viability under UV irradiation of 1800 mW for 1 min measured after 72 hrs by Cell-Titer Blue assay; assay type: functional, cell-based; details: U-251, light or radiation study
[15] = Induction of apoptosis in patient-derived RN1 cells assessed as live cells at 5 uM after 48 hrs under UV irradiation of 1800 mW for 30 secs by Annexin V staining based assay relative to control; assay type: functional, Homo sapiens
Homo sapiens [16] = species: Homo sapiens; assay: Disruption of microtubule organization in human U251 cells assessed as cell rounding at 5 uM after 24 hrs under UV irradiation of 1800 mW for 5 mins by DAPI staining based immunofluorescence assay
[17] = Dark toxicity against patient-derived RN1 cells assessed as reduction in cell viability after 72 hrs by Cell-Titer Blue assay; assay type: cell-based; details: human
[18] = Induction of apoptosis in patient-derived RN1 cells assessed as late apoptotic cells at 5 uM after 48 hrs under UV irradiation of 1800 mW for 30 secs by Annexin V staining based assay relative to control; assay type: functional, Homo sapiens
Sus scrofa [19] = species: Sus scrofa; assay: Inhibition of porcine brain tubulin polymerization at 50 uM under UV irradiation of 1800 mW for 5 mins by fluorescence assay
[20] = Induction of apoptosis in patient-derived RN1 cells assessed as early apoptotic cells at 5 uM after 48 hrs under UV irradiation of 1800 mW for 30 secs by Annexin V staining based assay relative to control; assay type: functional, Homo sapiens
[21] = Disruption of microtubule organization in human U251 cells assessed as changes in cell morphology at 5 uM after 24 hrs under dark condition by DAPI staining based immunofluorescence assay; assay type: ADME
U-251 [22] = assay: Phototoxicity against human U251 cells assessed as reduction in cell viability up to 100 uM under UV irradiation of 1800 mW for 1 min measured after 72 hrs by Cell-Titer Blue assay; assay type: functional, cell-based
[23] = Drug metabolism in human U251 cells assessed as DMNB release up to 100 uM under UV irradiation of 1800 mW for 1 min measured after 72 hrs; assay type: ADME, cell-based; details: u-251, 72 h
Sus scrofa [24] = species: Sus scrofa; assay: Inhibition of colchicine binding to porcine brain tubulin after 90 mins by fluorescence assay
[25] = Cytotoxicity against patient-derived RN1 cells assessed as reduction in cell viability after 72 hrs by Cell-Titer Blue assay; assay type: functional, cell-based; details: Homo sapiens, RN1, 72 h
Homo sapiens [26] = species: Homo sapiens; assay: Disruption of microtubule organization in human U251 cells at 5 uM after 24 hrs by DAPI staining based immunofluorescence assay; assay type: cell-based
Sus scrofa [27] = species: Sus scrofa; assay: Inhibition of porcine brain tubulin polymerization at 50 uM by fluorescence assay
Homo sapiens [28] = species: Homo sapiens; assay: Disruption of microtubule organization in human U251 cells assessed as changes in cell morphology at 5 uM after 24 hrs by DAPI staining based immunofluorescence assay
[29] = Induction of apoptosis in patient-derived RN1 cells at 5 uM after 48 hrs by Annexin V staining based assay (reference value: 8.1%); assay type: functional, Homo sapiens
[30] = Photostability of the compound at 1 mM under UV irradiation of 5400 mW after 20 mins by HPLC-MS analysis
U-251 [31] = assay: Cytotoxicity against human U251 cells assessed as reduction in cell viability after 72 hrs by Cell-Titer Blue assay; assay type: functional, cell-based; details: U-251, 72 h
U-251 [32] = assay: Cytotoxicity against human U251 cells assessed as reduction in cell viability at >40 uM after 72 hrs by Cell-Titer Blue assay; assay type: functional, cell-based

inhibition (Sus scrofa [1]): Active
inhibition (Sus scrofa [2]): inactive
SMILES: CC[C@]1(O)C[C@@H]2CN(CCc3c([nH]c4ccccc34)[C@@](C(=O)OC)(c3cc4c(cc3OC)N(C)[C@H]3[C@@](O)(C(=O)OC)[C@H](OC(C)=O)[C@]5(CC)C=CCN6CC[C@]43[C@@H]65)C2)C1

inhibition (Sus scrofa [1]): inactive
SMILES: CC(=O)O[C@H]1C(=O)[C@@]2(C)[C@H]([C@H](OC(=O)c3ccccc3)[C@]3(O)C[C@H](OC(=O)[C@H](O)[C@@H](NC(=O)c4ccccc4)c4ccccc4)C(C)=C1C3(C)C)[C@]1(OC(C)=O)CO[C@@H]1C[C@@H]2O

Activity [11]: Not Active
Activity [12]: Not Active
Activity [13]: Not Active
inhibition (Sus scrofa [19]): Active
Activity [21]: Not Active
SMILES: COc1cc(COc2ccc(NC(=O)CCCc3ccc(-c4cccnc4F)cc3)cc2)c([N+](=O)[O-])cc1OC
Activity (Homo sapiens [3]): Active
TIME [4]: 0.0101 h
Activity [5]: 12.6%
EC50 at 72 h [6]: 72 µM
Drug metabolism [7]: 80%
EC50 [8]: 1.2 µM
TIME [9]: > 0.0333 h
Activity [10]: 0.5%
EC50 (U-251 [14]): 2.1 µM
Activity [15]: 36.95%
Activity (Homo sapiens [16]): Active
EC50 at 72 h [17]: 37.4 µM
Activity [18]: 41.3%
Activity [20]: 20.75%

Drug metabolism [23]: Metabolite_Detected
SMILES: COc1cc(COC(=O)C(C)NC(=O)OC(C)(C)C)c([N+](=O)[O-])cc1OC (stereo unspecified)
Activity (U-251 [22]): inactive

inhibition (Sus scrofa [24]): Dose-dependent effect
inhibition (Sus scrofa [27]): Active
SMILES: O=C(CCCc1ccc(-c2cccnc2F)cc1)Nc1ccc(O)cc1
EC50 [8]: 0.7 µM
EC50 [25]: 0.3 µM
Activity (Homo sapiens [26]): Active
Activity (Homo sapiens [28]): Active
Activity [29]: 47.8%
EC50 (U-251 [14]): 1.4 µM
Stability [30]: Stable
EC50 (U-251 [31]): 1.3 µM

SMILES: O=C(CCCc1ccc(-c2cccnc2F)cc1)Nc1ccc(OCc2ccccc2)cc1
Activity (U-251 [32]): inactive

inhibition (Sus scrofa [2]): Active
SMILES: COC(=O)Nc1nc2cc(C(=O)c3cccs3)ccc2[nH]1
